Laboratory results reported in US8815295B1, “Anti respiratory syncytial virus peptide functionalized gold nanoparticles” (Alabama State University, priority 2011, dated 2014).
Peptide text beside a SMILES is read from it.

Test system: human epidermoid cancer (HEp-2) cells
Assay: MTT cell viability (cytotoxicity) assay
Conditions: 24 and 48 hours, concentrations up to 50 μg/ml
Experimental: The peptides and carboxylated gold nanoparticles were tested for cytotoxic effects on human epidermoid cancer (HEp-2) cells. Cell viability was assessed by measuring cell concentration of a tetrazolium salt (3-(4,5 dimethyl-2-yl)-5-(3-carboxy-methoxyphenyl)-2-(4-sulfophenyl)-2H-tetrazolium) […]. If cells are viable the mitochondria will reduce the MTT. The cells were grown overnight in minimal essential medium (MEM) supplemented with L-glutamine, Penicillin, streptomycin, and kanamycin. 2.7×10^5 cells/well in 100 μl were seeded into 96-well plates in MEM. Cells were allowed to grow overnight in an incubator at 37° C., with a 5% CO2 humidified atmosphere, until the carboxylated gold nanoparticles were added. […] Treated cells were further incubated at 37° C., 5% CO2 for 24, and 48 hours. At the end of the corresponding incubation time, 15 μl of MTT dye was added into each well and the plates were allowed to incubate for the next 4 hours in the dark. The reaction was then stopped with 100 μl of stop solution. The absorbance of the media was measured at 570 nm on a TECAN Sunrise enzyme-linked immunosorbent assay plate reader (TECAN, US Inc., Durham, N.C., USA). Non-treated cells in growth media were used as a control.

Row | Compound | effect on cell viability
1 | CC[C@H](C)[C@H](NC(=O)[C@H](Cc1ccccc1)NC(=O)[C@H](C)NC(=O)[C@H](CC(C)C)NC(=O)[C@H](CO)NC(=O)[C@H](CCC(N)=O)NC(=O)[C@H](CC(N)=O)NC(=O)[C@@H](NC(=O)[C@H](CCCCN)NC(=O)[C@H](CCC(=O)O)NC(=O)[C@H](CC(N)=O)NC(=O)[C@@H](NC(=O)[C@H](CCC(N)=O)NC(=O)[C@H](CO)NC(=O)[C@@H](NC(=O)[C@@H](N)CO)[C@@H](C)CC)C(C)C)[C@@H](C)CC)C(=O)N[C@@H](CCCNC(=N)N)C(=O)N[C@@H](CCCCN)C(=O)N[C@@H](CO)C(=O)N[C@@H](CC(=O)O)C(=O)O [RF491] (H-SISQVNEKINQSLAFIRKSD-OH) | no significant effect
2 | VFPSDEFDASISQVNEKINQSLAFIRKSDLLHNVNAGKK (respiratory syncytial virus) [RF482] | no significant effect
